“Also recorded” adds a separate entry of the source. Where a name gives a salt, the structure may show the parent alone. Read-outs that look alike come from different tables or passages of the source.
Legend:
[1] = test system: placental carbonyl-reducing enzymes (human placental microsomes); format: biochemical; conditions: bupropion 40 μM, pooled placental microsomes, 40 min 37°C; for effect on formation of threo- and erythrohydrobupropion: inhibitor 500 μM
11β-HSD1 = 11β-HSD1 ref 44; cited from earlier work
[2] = test system: placental carbonyl-reducing enzymes (human placental microsomes); assay: Type of inhibition and Ki of 18β-GA on bupropion reduction; format: biochemical; conditions: Lineweaver-Burk plot: apparent Km increased, Vmax not affected
[3] = Kinetics of bupropion reduction by human placental microsomes; format: in vitro ADME; conditions: Mean±S.D. of HPM 1-6

Cc1cn[nH]c1 [4-methylpyrazole]
effect on formation of threo- and erythrohydrobupropion [1]: did not inhibit

CC1(C)[C@@H](O)CC[C@]2(C)[C@H]3C(=O)C=C4[C@@H]5C[C@@](C)(C(=O)O)CC[C@]5(C)CC[C@@]4(C)[C@]3(C)CC[C@@H]12 [18β-GA, 18β-glycyrrhetinic acid]
IC50 (11β-HSD1): […] | type of inhibition of bupropion reduction [2]: competitive | inhibition of formation of threo- and erythrohydrobupropion ([1]; inhibitor 0.1 μM): 80%

CCC1(CC)C(=O)NC(=O)NC1=O [barbital]
effect on formation of threo- and erythrohydrobupropion [1]: did not inhibit

CC(NC(C)(C)C)C(=O)c1cccc(Cl)c1 (stereo not shown) [bupropion, Bupropion hydrochloride]
Vmax, erythrohydrobupropion formation [3]: 3.1±1.2 picomoles per minute per milligram of protein | Vmax, threohydrobupropion formation [3]: 18.6±6.1 picomoles per minute per milligram of protein

O=c1oc2ccccc2c(O)c1Cc1c(O)c2ccccc2oc1=O [dicumarol]
effect on formation of threo- and erythrohydrobupropion [1]: did not inhibit; also recorded: did not affect

O=C(O)c1ccccc1Nc1cccc(C(F)(F)F)c1 [flufenamic acid]
inhibition of formation of threo- and erythrohydrobupropion ([1]; inhibitor 4 μM): 50%

CC1=CC(=O)c2ccccc2C1=O [menadione]
inhibition of formation of threo- and erythrohydrobupropion ([1]; inhibitor 100 μM): 70%

Source: article PMC2847018 (Biochemical pharmacology, 2010)
